What was measured:
[1] = Protein binding by rapid equilibrium dialysis, reporter assay media; format: in vitro ADME; settings: DMEM/F-12 with 5% dextran-coated charcoal-stripped FCS, mean ± SD, n=3
Experimental: (§1) Protein binding was determined via rapid equilibrium dialysis (RED) with incorporation of a pre-saturation step ([Charman et al., 2020]). The pre-incubation process involved RED system being exposed to fresh aqueous solutions of GW6471 (400 nM) for three periods (including one overnight). For the protein binding determination, GW6471 was spiked into the diluted mouse plasma (10% (v/v); in PBS) or DMEM/F-12 media containing 5% dextran-coated charcoal-stripped FCS (at 2000 nM) and dialysed against protein-free PBS (for plasma) or base media (DMEM/F-12) containing GW6471 at 40 nM for 24 h at 37°C under ambient atmosphere on a plate shaker. Concentrations of GW6471 in dialysate and donor samples collected at the end of the dialysis period were determined via LC–MS.
(§2) Compound binding was assessed on the basis of the measured concentrations in dialysate and donor samples at the end of the dialysis period.
(§3) Based on the post-dialysis measured concentrations in donor (Ctotal_post_dialysis) and dialysate (Cunbound) for each RED unit, the unbound fraction of compound in assay matrix (fu_diluted) was calculated according to Equation 1 below:(Equation 1) fu=Cunbound/Ctotal_post−dialysis
(§4) For media, the value for fu calculated according to Equation 1 above was used without further correction. […]

PPARα = target: T1, PPARα (Homo sapiens, UniProt Q07869); set-up: expressed in transfected cells; host or cells: HG5LN (HeLa-derived, GAL4RE-luciferase); method as in Xu et al., 2002; settings: inhibition of agonism by 10 nM GW409544, ref Xu et al., 2002, read-out: Functionality, Lit. IC50; cited from earlier work
T1 sequence (Q07869 239-466 limits assumed): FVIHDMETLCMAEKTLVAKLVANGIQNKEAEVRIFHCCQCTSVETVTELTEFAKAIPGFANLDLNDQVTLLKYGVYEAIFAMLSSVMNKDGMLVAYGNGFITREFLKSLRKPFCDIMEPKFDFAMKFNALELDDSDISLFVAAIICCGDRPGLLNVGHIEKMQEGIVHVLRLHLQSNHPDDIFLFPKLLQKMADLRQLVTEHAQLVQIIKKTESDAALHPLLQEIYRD

PPARγ = target: T2, PPARγ (Homo sapiens, UniProt P37231); set-up: expressed in transfected cells; host or cells: HG5LN (HeLa-derived, GAL4RE-luciferase); method as in Goldstein et al., 2017; settings: an IC50 value was not reported, ref Goldstein et al., 2017, read-out: Functionality, Lit. IC50; cited from earlier work
T2 sequence (P37231 238-503 limits assumed): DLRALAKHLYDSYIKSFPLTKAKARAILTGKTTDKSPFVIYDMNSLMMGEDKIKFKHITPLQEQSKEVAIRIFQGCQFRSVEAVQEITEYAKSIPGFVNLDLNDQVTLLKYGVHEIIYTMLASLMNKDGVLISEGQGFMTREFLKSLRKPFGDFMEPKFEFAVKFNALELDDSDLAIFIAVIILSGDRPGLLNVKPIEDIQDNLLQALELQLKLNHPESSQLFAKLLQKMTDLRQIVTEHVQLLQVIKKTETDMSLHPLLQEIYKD

[2] = Protein binding by rapid equilibrium dialysis, mouse plasma; format: in vitro ADME; settings: corrected from 10% diluted plasma, mean ± SD, n=3
Experimental: as §1, §2, §3, §4

For `CCC(=O)NC[C@H](Cc1ccc(OCCc2nc(-c3ccccc3)oc2C)cc1)N/C(C)=C\C(=O)c1ccc(C(F)(F)F)cc1` [GW6471], the “Fraction unbound (fu)” value [1] is listed as 0.0037 ± 0.0006, the IC50 (PPARα) is listed as 0.24 µM and the IC50 (PPARγ) is listed as less than 1 µM. The “Fraction unbound (fu)” value [2] was 0.00059 ± 0.00005.
